pKd: −log10 of the molar value. Entries after “also recorded” stand apart in the source; their conditions may differ.
Legend:
[1] = biological target: T1, CDK4/cyclin D1 (Homo sapiens, UniProt P11802+P24385); assay: CDK4/cyclin D1 kinase assay (in vitro pRb phosphorylation); type: biochemical
T1 construct: His6 (N); made in house; host or cells: CDK4: Sf9 insect cells (baculovirus); GST-pRb: E. coli BL21(DE3)
Experimental: For the 96-well format in vitro kinase assay GST-pRb was used immobilized on glutathione-Sepharose beads.
CDK4/cyclin D1 kinase assay: The reaction mixture consisted of 1 μM of CDK4 and cyclin D1, 5 μg GST-pRb, 100 mM ATP and 0.2 μCi ^32P-ATP. The kinase reaction was carried out for 10 min at 30° C., the reaction was stopped with the addition of sample buffer and after heating the sample was resolved on 10% SDS-PAGE. The aouthoradiography images were scanned and quantified using QuickScan software. The IC50 values were determined using GraFit software.

[2] = biological target: T1, CDK4/cyclin D1; settings: background; cited from earlier work
[3] = biological target: T2, PCNA (Homo sapiens, UniProt P12004); settings: cited from earlier work
T2 construct: made in house; host or cells: Escherichia coli BL21(DE3), pT7-PCNA

[4] = test system: PCNA-dependent DNA replication; settings: cited from earlier work

T1 sequence (P11802 whole entry): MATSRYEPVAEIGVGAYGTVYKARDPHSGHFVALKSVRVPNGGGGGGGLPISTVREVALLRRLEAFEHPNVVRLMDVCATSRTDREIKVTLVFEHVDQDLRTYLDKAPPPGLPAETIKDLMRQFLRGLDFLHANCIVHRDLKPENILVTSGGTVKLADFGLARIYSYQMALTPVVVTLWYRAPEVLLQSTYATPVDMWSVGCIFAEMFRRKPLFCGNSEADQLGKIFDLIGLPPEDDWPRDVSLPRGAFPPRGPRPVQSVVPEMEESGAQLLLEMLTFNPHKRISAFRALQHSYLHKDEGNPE
T1 sequence (P24385 whole entry): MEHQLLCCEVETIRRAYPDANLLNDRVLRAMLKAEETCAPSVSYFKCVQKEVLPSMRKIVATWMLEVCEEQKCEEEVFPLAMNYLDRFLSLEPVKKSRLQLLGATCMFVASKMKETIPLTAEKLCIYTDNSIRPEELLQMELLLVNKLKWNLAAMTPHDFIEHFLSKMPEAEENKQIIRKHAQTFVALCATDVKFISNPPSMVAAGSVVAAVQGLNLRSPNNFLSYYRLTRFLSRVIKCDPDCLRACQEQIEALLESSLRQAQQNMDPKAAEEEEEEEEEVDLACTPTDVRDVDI
T2 sequence (P12004 whole entry): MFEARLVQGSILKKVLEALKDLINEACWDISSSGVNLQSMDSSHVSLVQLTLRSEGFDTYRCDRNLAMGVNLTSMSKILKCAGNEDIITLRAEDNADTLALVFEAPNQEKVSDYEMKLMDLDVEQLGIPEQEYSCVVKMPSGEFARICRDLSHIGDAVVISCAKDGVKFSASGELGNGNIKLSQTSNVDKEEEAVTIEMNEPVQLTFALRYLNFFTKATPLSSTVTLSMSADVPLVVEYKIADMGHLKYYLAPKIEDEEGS

Substance | CDK/cyclin inhibitory activity [1] | inhibition of CDK function [2] | affinity for PCNA (in words) [3] | enthalpy of binding to PCNA ([3]; isothermal calorimetry) | entropic contribution to PCNA binding ([3]; isothermal calorimetry) | pKd ([3]; read-out: Kd of binding to PCNA) | inhibition of DNA replication in vitro (in words) [4] | Ka of binding to PCNA ([3]; isothermal calorimetry)
SAVLQKKITDYFHPKK [CM peptide, hybrid containing 12 residues from the C-terminus of Pogo, flanked by 4 residues from DNA ligase I] | devoid of CDK/cyclin inhibitory activity; also recorded: does not inhibit CDK function | unable to inhibit CDK function | nanomolar affinity; also recorded: affinity very similar to that of the p21(141-160) peptide | -9.52 kcal/mol | 0.61 cal mol^−1 ° C.^−1 | 7.00 | potency very similar to that of p21(141-160); also recorded: efficient inhibitor | –
p21D149A: site point mutant p21(141-160)D149A (KRRQTSMTAFYHSKRRLIFS; UniProt P38936 141-160, looked up, variant D149A) [reference compound] | – | – | – | – | – | – | – | 7.8×10^5

— patent US20080167385A1 (priority 2004, published 2008)
